Key:
[1] = tested on: BDNF and phospho-CREB proteins; experiment: western blot of memory-related factors in hippocampus; format: in vivo, Wistar rats
Experimental: (§1) Specifically, 12-week-old Wister rats (350 g to 380 g) were used for the experiments. After obtaining the experimental animals, appearance was visually inspected and then normal symptoms were observed during a 7-day acclimation period. Healthy animals were selected therefrom and assigned to groups by a random method according to body weight ranges, and then experiments were performed. During the acclimation and experiment, a constant breeding environment was maintained under the conditions of a temperature of 23±3° C., a relative humidity of 50±10%, a ventilation frequency of 12 times to 16 times per hour, a 12-hour light-dark cycle (light on at 7:00, light off at 19:00), and an intensity of illumination of 150 Lx to 300 Lx. Experiments were performed using sterilized instruments, and the rats were allowed free access to tap water and a solid feed (PMI nutrition, USA) for 24 hours.
(§2) In order to construct a vascular dementia-mimic animal model, chronic cerebral hypoperfusion was induced by bilateral common carotid artery occlusion (2VO, hereinafter referred to as “brain damage (BCCA0)”) (Wakita et al., 1994). The rats were anesthetized with 4% isoflurane, and the anesthesia was maintained by 1.5% isoflurane during the operation. The central neck was incised to expose the bilateral common carotid artery carefully so as not to cause damage to the vagal nerve. Ligation was performed twice with No. 3 silk, thereby constructing an animal model in which dementia was induced by brain damage.
(§3) After 21 days from the BCCA0 operation, the Wistar rats were orally administered with mumefural for 42 days. The rats were divided into 5 groups listed in Table 1 below, and controls were orally administered with saline. Different concentrations of mumefural were set in the oral administration as low concentration (20 mg/kg), medium concentration (40 mg/kg), and high concentration (80 mg/kg).
In order to investigate effects of mumefural on normalization of damaged hippocampus in the dementia-mimic animal model, mumefural was administered in the same manner as in Example 1, and then expression levels of memory-related factors in the hippocampus were analyzed.
Specifically, the hippocampus was excised from each of the dementia-mimic rats after administration of mumefural was completed, and proteins were extracted therefrom. Expression levels of brain-derived neurotrophic factor (BDNF), phospho-cAMP response element-binding protein (phospho-CREB), and cAMP response element-binding protein (CREB) were analyzed by western blotting. β-Actin was used as a loading control.

AChE [2] = experiment: enzyme-linked immunosorbent assay of AChE activity in basal forebrain; format: in vivo; conditions: compared with the negative control; FIG. 6
Experimental: as §1
(§4) In order to construct a vascular dementia-mimic animal model, chronic cerebral hypoperfusion was induced by bilateral common carotid artery occlusion (2VO, hereinafter referred to as “brain damage (BCCA0)”) (Wakita et al., 1994). The rats were anesthetized with 4% isoflurane, and the anesthesia was maintained by 1.5% isoflurane during the operation. The central neck was incised to expose the bilateral common carotid artery carefully so as not to cause damage to the vagal nerve. […]

IL-1β and IL-18 = experiment: enzyme immunoassay of inflammatory cytokines in hippocampus tissue; format: in vivo, Wistar rats; conditions: compared with the negative control, FIG. 20
Experimental: as §1, §4

[3] = tested on: myelin basic protein (MBP); experiment: immunohistostaining of MBP protein (degraded myelin) in white matter and hippocampus; format: in vivo, Wistar rats; conditions: compared with the negative control, FIGS. 9A, 9B
Experimental: Specifically, 12-week-old Wister rats (350 g to 380 g) were used for the experiments. After obtaining the experimental animals, appearance was visually inspected and then normal symptoms were observed during a 7-day acclimation period. Healthy animals were selected therefrom and assigned to groups by a random method according to body weight ranges, and then experiments were performed. […]
In order to investigate the effects on normalization of degraded myelin in the dementia-mimic animal model, mumefural was administered in the same manner as in Example 1 above, and then degradation degrees of oligodendrocytes was analyzed in the hippocampus, fornix, medial septum, corpus callosum, and fimbria hippocampi.
Specifically, the brain was excised from each of the dementia-mimic rats after administration of mumefural was completed and sectioned into slices with a thickness of 40 μm. Subsequently, oligodendrocytes in the hippocampus, white matter fornix, medial septum, corpus callosum, and fimbria hippocampi were detected using myelin basic protein (MBP) that is expressed in the myelin sheath of axons by oligodendrocytes. The slices were stained by immunohistostaining using anti-MBP antibody as a primary antibody and horse anti-mouse antibody as a secondary antibody, and anti-MBP positive cell responses were detected.

astrocytes = experiment: immunohistostaining of GFAP (astrocytes) in hippocampus and white matter; format: in vivo, Wistar rats
Experimental: as §1, §2
After 21 days from the BCCA0 operation, the Wistar rats were orally administered with mumefural for 42 days. The rats were divided into 5 groups listed in Table 1 below, and controls were orally administered with saline. […]
(§5) In order to investigate effects of mumefural on normalization of damaged hippocampus and corpus callosum of white matter in the dementia-mimic animal model, mumefural was administered in the same manner as in Example 1, and then microglia and astrocytes were detected in the hippocampus and white matter to identify gliosis. […]

dementia-mimic rats = experiment: water maze test in dementia-mimic animal model; format: in vivo, Wistar rats
Experimental: as §1, §2, §3
In order to investigate effects of mumefural on enhancing spatial memory in the dementia-mimic animal model, a water maze test was performed after administering mumefural in the same manner as in Example 1 above.
Specifically, a circular water tank (diameter: 180 cm, height: 58 cm) was filled with water at a temperature of 26±2° C. up to 2 cm above a marked platform, screen walls were set up on all sides of the water tank to prevent light from coming through, and a pigment was added thereto to make the water opaque. In addition, labels were attached to given positions (diameter: 12 cm, height: 33.5 cm) of the screen walls to give clues for the rats to search for the marked platform. Spatial memory training was performed […] for 8 days every morning (from 9:00 a.m.) once per day 8 times in total. Time taken for the rats to find the hidden platform and escape latency thereof were measured and regarded as markers of memory, and reduced time of every group was compared every day. Thereafter, a water maze test was performed after 8 days from the training. In this test, time taken for the rats to first find the hidden platform was measured and used as a marker of memory. That is, a shorter time is regarded as more improved recognition ability.

AChE [4] = experiment: enzyme-linked immunosorbent assay of AChE activity in hippocampus; format: in vivo; conditions: compared with the negative control; FIG. 8
Experimental: as §1, §4

microglia = experiment: immunohistostaining of lba-1 (microglia) in hippocampus and white matter; format: in vivo, Wistar rats; conditions: compared with the negative control
Experimental: as §1, with “hours. […]” for “hours.”
as §5

[5] = 20 mg/kg, 40 mg/kg, and 80 mg/kg oral, relative to normal control
[6] = compared with the negative control, FIGS. 14A, 14B

O=Cc1ccc(COC(=O)CC(O)(CC(=O)O)C(=O)O)o1 (stereo not shown) [mumefural]
expression level of BDNF protein vs normal control [1, 5]: higher expression levels than that of the normal control by about three times or more
expression level of phospho-CREB protein vs normal control [1, 5]: higher expression levels than that of the normal control by about three times or more
expression level of BDNF protein in hippocampus [1, 6]: significantly increased
expression level of phospho-CREB protein in hippocampus [1, 6]: significantly increased
activity of AChE in the basal forebrain (AChE [2]): reduced
level of IL-1β in hippocampus tissue (IL-1β and IL-18): significantly decreased
level of IL-18 in hippocampus tissue (IL-1β and IL-18): significantly decreased
myelin degradation (MBP immunohistostaining) [3]: decreased
numbers of astrocytes, effect vs normal control (astrocytes; 20 mg/kg, 40 mg/kg, and 80 mg/kg oral, hippocampus and white matter): effects similar to or superior to those of the normal control
numbers of astrocytes (GFAP positive cells) in the hippocampus (astrocytes; compared with the negative control, FIGS. 16A, 16B): significantly decreased
numbers of astrocytes (GFAP positive cells) in the white matter (astrocytes; compared with the negative control, FIGS. 16C, 16D): significantly decreased
latency to find the hidden platform vs normal control (dementia-mimic rats; BCCAo rats, 20 mg/kg, 40 mg/kg, and 80 mg/kg oral, compared with normal control, FIG. 1): high latency similar to that of the normal control
time to first arrive at the hidden platform vs normal control (dementia-mimic rats; BCCAo rats, 40 mg/kg and 80 mg/kg oral, compared with normal control, FIG. 2): short time similar to that of the normal control
time to first arrive at the hidden platform (dementia-mimic rats; BCCAo rats, oral mumefural 42 days, compared to the negative control, FIG. 2): reduced
latency to find the hidden platform (escape latency) (dementia-mimic rats; BCCAo rats, oral mumefural 42 days, compared with the negative control (saline), FIG. 1): increased
average swim speeds (dementia-mimic rats; among the groups (20, 40, 80 mg/kg, controls), FIG. 3): no difference
activity of AChE in the hippocampus (AChE [4]): decreased
numbers of microglia (lba-1 positive cells) in the hippocampus (microglia; FIGS. 15A, 15B): significantly decreased
numbers of microglia (lba-1 positive cells) in the white matter (microglia; FIGS. 15C, 15D): significantly decreased
